# Reference: ChEMBL document CHEMBL1201861, “Genomics of Drug Sensitity in Cancer screening data, Wellcome Trust Sanger Institute”
# Tests used:
# Experiment in all cases: cells
# Conditions in all cases: Homo sapiens
# [1] = tested on: MMAC-SF; type: functional, cell-based;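 note: growth inhibition of human MMAC-SF cells, read out with a cell viability assay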
# Description: SANGER: Inhibition of human MMAC-SF cell growth in a cell viability assay.
# [2] = tested on: NCI-H292; type: functional, cell-based;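 note: growth inhibition of NCI-H292 cells, read out with a cell viability assay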
# Description: SANGER: Inhibition of human NCI-H292 cell growth in a cell viability assay.
# [3] = tested on: MSTO-211H; type: functional, cell-based
# Description: SANGER: Inhibition of human MSTO-211H cell growth in a cell viability assay.
# [4] = tested on: RPMI-8866; type: functional, cell-based
# Description: SANGER: Inhibition of human RPMI-8866 cell growth in a cell viability assay.
# [5] = tested on: NCI-H1395; type: functional, cell-based;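 note: cell viability assay read-out quantifying reduced proliferation of human NCI-H1395 cells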
# Description: SANGER: Inhibition of human NCI-H1395 cell growth in a cell viability assay.
# [6] = tested on: IST-MEL1; type: functional, cell-based;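 note: growth inhibition of the cell line, read out with a cell viability assay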
# Description: SANGER: Inhibition of human IST-MEL1 cell growth in a cell viability assay.
# [7] = tested on: MZ7-mel; type: functional, cell-based;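 note: growth inhibition of human MZ7-mel cells, measured by a cell viability assay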
# Description: SANGER: Inhibition of human MZ7-mel cell growth in a cell viability assay.
# [8] = tested on: NEC8; type: functional, cell-based;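 note: growth inhibition of human NEC8 cells, read out by a cell viability assay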
# Description: SANGER: Inhibition of human NEC8 cell growth in a cell viability assay.
# [9] = tested on: NB5; type: functional, cell-based;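 note: growth inhibition of NB5 cells, read out as cell viability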
# Description: SANGER: Inhibition of human NB5 cell growth in a cell viability assay.
# [10] = tested on: SNB-75; type: functional, cell-based;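 note: cell viability assay measuring growth inhibition of human SNB-75 cells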
# Description: SANGER: Inhibition of human SNB75 cell growth in a cell viability assay.
# [11] = tested on: Becker; type: functional, cell-based;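 note: growth inhibition of Becker cells, read out with a cell viability assay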
# Description: SANGER: Inhibition of human Becker cell growth in a cell viability assay.
# [12] = tested on: RS4-11; type: functional, cell-based;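 note: growth inhibition of RS4-11 cells, read out by a cell viability assay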
# Description: SANGER: Inhibition of human RS4-11 cell growth in a cell viability assay.
# [13] = tested on: TGBC24TKB; type: functional, cell-based;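 note: growth inhibition of human TGBC24TKB cells, read out with a cell viability assay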
# Description: SANGER: Inhibition of human TGBC24TKB cell growth in a cell viability assay.
# [14] = tested on: SiHa; type: functional, cell-based;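 note: Viability-based readout of growth inhibition in SiHa cells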
# Description: SANGER: Inhibition of human SiHa cell growth in a cell viability assay.
# [15] = tested on: NKM-1; type: functional, cell-based;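 note: growth inhibition of NKM-1 cells, read out with a cell viability assay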
# Description: SANGER: Inhibition of human NKM-1 cell growth in a cell viability assay.
# [16] = tested on: C2BBe1; type: functional, cell-based;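 note: growth inhibition of C2BBe1 cells, read out through a viability assay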
# Description: SANGER: Inhibition of human C2BBe1 cell growth in a cell viability assay.
# [17] = tested on: KURAMOCHI; type: functional, cell-based;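 note: growth inhibition of KURAMOCHI cells, read out with a cell viability assay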
# Description: SANGER: Inhibition of human KURAMOCHI cell growth in a cell viability assay.
# [18] = tested on: EW-24; type: functional, cell-based;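 note: human EW-24 cancer cell line, growth inhibition read out via a cell viability assay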
# Description: SANGER: Inhibition of human EW-24 cell growth in a cell viability assay.
# [19] = tested on: NCI-H720; type: functional, cell-based;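 note: growth inhibition of human NCI-H720 cells determined by a cell viability assay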
# Description: SANGER: Inhibition of human NCI-H720 cell growth in a cell viability assay.
# [20] = tested on: LXF-289 cell line; type: functional, cell-based
# Description: SANGER: Inhibition of human LXF-289 cell growth in a cell viability assay.
# [21] = tested on: SK-N-FI; type: functional, cell-based;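 note: cell viability assay measuring growth inhibition of human SK-N-FI cells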
# Description: SANGER: Inhibition of human SK-N-FI cell growth in a cell viability assay.
# [22] = tested on: KE-37; type: functional, cell-based;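 note: growth inhibition of KE-37 cells, read out with a cell viability assay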
# Description: SANGER: Inhibition of human KE-37 cell growth in a cell viability assay.
# [23] = tested on: D-263MG; type: functional, cell-based
# Description: SANGER: Inhibition of human D-263MG cell growth in a cell viability assay.
# [24] = tested on: RH-1; type: functional, cell-based;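 note: growth inhibition of human RH-1 cells, read out with a cell viability assay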
# Description: SANGER: Inhibition of human RH-1 cell growth in a cell viability assay.
# [25] = tested on: KM-H2; type: functional, cell-based;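 note: growth inhibition of KM-H2 cells, read out by a cell viability assay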
# Description: SANGER: Inhibition of human KM-H2 cell growth in a cell viability assay.
# [26] = tested on: L-540; type: functional, cell-based;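 note: growth inhibition of the human L-540 cell line, read out with a viability assay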
# Description: SANGER: Inhibition of human L-540 cell growth in a cell viability assay.
# [27] = tested on: KNS-81-FD; type: functional, cell-based;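 note: growth inhibition of KNS-81-FD cells, read out with a cell viability assay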
# Description: SANGER: Inhibition of human KNS-81-FD cell growth in a cell viability assay.
# [28] = tested on: BE-13; type: functional, cell-based;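 note: growth inhibition of human BE-13 cells, measured with a cell viability assay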
# Description: SANGER: Inhibition of human BE-13 cell growth in a cell viability assay.
# [29] = tested on: DU-4475; type: functional, cell-based
# Description: SANGER: Inhibition of human DU-4475 cell growth in a cell viability assay.
# [30] = tested on: AM-38; type: functional, cell-based;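 note: growth inhibition of AM-38 cells of human origin, read out by a cell viability assay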
# Description: SANGER: Inhibition of human AM-38 cell growth in a cell viability assay.
# [31] = tested on: HCC1599; type: functional, cell-based;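 note: growth inhibition of HCC1599 cells, read out in a cell viability assay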
# Description: SANGER: Inhibition of human HCC1599 cell growth in a cell viability assay.
# [32] = tested on: COLO-684; type: functional, cell-based
# Description: SANGER: Inhibition of human COLO-684 cell growth in a cell viability assay.
# [33] = tested on: SCC-15; type: functional, cell-based;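 note: growth inhibition of SCC-15 cells, read out with a cell viability assay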
# Description: SANGER: Inhibition of human SCC-15 cell growth in a cell viability assay.
# [34] = tested on: SF-268; type: functional, cell-based;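 note: growth inhibition of SF-268 cells determined with a cell viability assay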
# Description: SANGER: Inhibition of human SF268 cell growth in a cell viability assay.
# [35] = tested on: MS-1; type: functional, cell-based;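 note: growth inhibition of MS-1 cells, read out by cell viability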
# Description: SANGER: Inhibition of human MS-1 cell growth in a cell viability assay.
# [36] = tested on: PFSK-1; type: functional, cell-based;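 note: cell viability assay measuring how strongly compounds suppress growth of human PFSK-1 cells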
# Description: SANGER: Inhibition of human PFSK-1 cell growth in a cell viability assay.
# [37] = tested on: SW 962; type: functional, cell-based;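 note: growth inhibition of human SW962 cells, read out by a cell viability assay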
# Description: SANGER: Inhibition of human SW962 cell growth in a cell viability assay.
# [38] = tested on: ATN-1; type: functional, cell-based;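 note: growth inhibition of human ATN-1 cells, read out with a cell viability assay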
# Description: SANGER: Inhibition of human ATN-1 cell growth in a cell viability assay.
# [39] = tested on: HO-1-N-1; type: functional, cell-based;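 note: growth inhibition of human HO-1-N-1 cells, read out with a cell viability assay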
# Description: SANGER: Inhibition of human HO-1-N-1 cell growth in a cell viability assay.
# [40] = tested on: NCI-H1650; type: functional, cell-based;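 note: growth inhibition of human NCI-H1650 cells measured by a cell viability assay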
# Description: SANGER: Inhibition of human NCI-H1650 cell growth in a cell viability assay.
# [41] = tested on: SW780; type: functional, cell-based;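 note: growth inhibition of the cells, read out with a cell viability assay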
# Description: SANGER: Inhibition of human SW780 cell growth in a cell viability assay.
# [42] = tested on: MEG-01; type: functional, cell-based;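 note: growth inhibition of MEG-01 cells, read out by a cell viability assay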
# Description: SANGER: Inhibition of human MEG-01 cell growth in a cell viability assay.
# [43] = tested on: IST-MES1; type: functional, cell-based;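 note: growth inhibition of IST-MES1 cells, measured with a cell viability assay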
# Description: SANGER: Inhibition of human IST-MES1 cell growth in a cell viability assay.
# [44] = tested on: MV4-11; type: functional, cell-based, MV-4-11;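 note: cell viability readout measuring growth inhibition of human MV-4-11 cells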
# Description: SANGER: Inhibition of human MV-4-11 cell growth in a cell viability assay.
# [45] = tested on: CAL-33; type: functional, cell-based;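 note: growth inhibition of CAL-33 cells, read out with a cell viability assay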
# Description: SANGER: Inhibition of human CAL-33 cell growth in a cell viability assay.
# [46] = tested on: DB; type: functional, cell-based
# Description: SANGER: Inhibition of human DB cell growth in a cell viability assay.
# [47] = tested on: LB373-MEL-D; type: functional, cell-based;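 note: growth inhibition of the cell line, read out in a cell viability assay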
# Description: SANGER: Inhibition of human LB373-MEL-D cell growth in a cell viability assay.
# [48] = tested on: GCIY; type: functional, cell-based;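 note: growth inhibition of the human GCIY cell line, read out by a cell viability assay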
# Description: SANGER: Inhibition of human GCIY cell growth in a cell viability assay.
# [49] = tested on: VA-ES-BJ; type: functional, cell-based;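 note: growth inhibition of the VA-ES-BJ cell line, read out by a cell viability assay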
# Description: SANGER: Inhibition of human VA-ES-BJ cell growth in a cell viability assay.
# [50] = tested on: GI-ME-N; type: functional, cell-based;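 note: growth inhibition of human GI-ME-N cells, read out with a cell viability assay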
# Description: SANGER: Inhibition of human GI-ME-N cell growth in a cell viability assay.
# [51] = tested on: SCC-9; type: functional, cell-based;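 note: Read-out is a cell viability assay, with values giving inhibition of cell growth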
# Description: SANGER: Inhibition of human SCC-9 cell growth in a cell viability assay.
# [52] = tested on: Lu-65; type: functional, cell-based;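 note: growth inhibition of Lu-65 cancer cells, read out by a cell viability assay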
# Description: SANGER: Inhibition of human LU-65 cell growth in a cell viability assay.
# [53] = tested on: BT-474; type: functional, cell-based
# Description: SANGER: Inhibition of human BT-474 cell growth in a cell viability assay.
# [54] = tested on: CP66-MEL; type: functional, cell-based;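 note: growth inhibition of CP66-MEL cells determined in a cell viability assay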
# Description: SANGER: Inhibition of human CP66-MEL cell growth in a cell viability assay.
# [55] = tested on: Mo; type: functional, cell-based
# Description: SANGER: Inhibition of human Mo-T cell growth in a cell viability assay.
# [56] = tested on: NCI-H358; type: functional, cell-based;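 note: growth inhibition of NCI-H358 human cells, read out with a cell viability assay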
# Description: SANGER: Inhibition of human NCI-H358 cell growth in a cell viability assay.
# [57] = tested on: G-401; type: functional, cell-based
# Description: SANGER: Inhibition of human G-401 cell growth in a cell viability assay.
# [58] = tested on: NB6; type: functional, cell-based;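 note: growth inhibition of NB6 cells, read out by a cell viability assay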
# Description: SANGER: Inhibition of human NB6 cell growth in a cell viability assay.
# [59] = tested on: ES6; type: functional, cell-based;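 note: growth inhibition of human ES6 cells, read out with a cell viability assay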
# Description: SANGER: Inhibition of human ES6 cell growth in a cell viability assay.
# [60] = tested on: CTV-1; type: functional, cell-based
# Description: SANGER: Inhibition of human CTV-1 cell growth in a cell viability assay.
# [61] = tested on: SF-126; type: functional, cell-based
# Description: SANGER: Inhibition of human SF126 cell growth in a cell viability assay.
# [62] = tested on: HCC 2998; type: functional, cell-based
# Description: SANGER: Inhibition of human HCC2998 cell growth in a cell viability assay.
# [63] = tested on: HC-1; type: functional, cell-based
# Description: SANGER: Inhibition of human HC-1 cell growth in a cell viability assay.
# [64] = tested on: TE-12; type: functional, cell-based
# Description: SANGER: Inhibition of human TE-12 cell growth in a cell viability assay.
# [65] = tested on: HuTu80; type: functional, cell-based, HUTU-80
# Description: SANGER: Inhibition of human HUTU-80 cell growth in a cell viability assay.
# [66] = tested on: NCI-H526; type: functional, cell-based
# Description: SANGER: Inhibition of human NCI-H526 cell growth in a cell viability assay.
smiles,measurement,setting,value
CO[C@@]12[C@H](COC(N)=O)C3=C(C(=O)C(C)=C(N)C3=O)N1C[C@@H]1N[C@@H]12 [MITOMYCIN],IC50,[1],1010 nM
same,IC50,[2],884 nM
same,IC50,[3],2820 nM
same,IC50,[4],1320 nM
same,IC50,[5],2230 nM
same,IC50,[6],< 62.5 nM
same,IC50,[7],333 nM
same,IC50,[8],187 nM
same,IC50,[9],358 nM
same,IC50,[10],303 nM
same,IC50,[11],862 nM
same,IC50,[12],34.9 nM
same,IC50,[13],710 nM
same,IC50,[14],1890 nM
same,IC50,[15],< 62.5 nM
same,IC50,[16],9280 nM
same,IC50,[17],523 nM
same,IC50,[18],783 nM
same,IC50,[19],1540 nM
same,IC50,[20],55.4 nM
same,IC50,[21],> 16000 nM
same,IC50,[22],< 62.5 nM
same,IC50,[23],540 nM
same,IC50,[24],49.6 nM
same,IC50,[25],130 nM
same,IC50,[26],95.1 nM
same,IC50,[27],1590 nM
same,IC50,[28],< 62.5 nM
same,IC50,[29],47.5 nM
same,IC50,[30],221 nM
same,IC50,[31],120 nM
same,IC50,[32],799 nM
same,IC50,[33],864 nM
same,IC50,[34],171 nM
same,IC50,[35],344 nM
same,IC50,[36],5880 nM
same,IC50,[37],158 nM
same,IC50,[38],17.4 nM
same,IC50,[39],441 nM
same,IC50,[40],283 nM
same,IC50,[41],> 16000 nM
same,IC50,[42],683 nM
same,IC50,[43],4150 nM
same,IC50,[44],< 62.5 nM
same,IC50,[45],537 nM
same,IC50,[46],430 nM
same,IC50,[47],430 nM
same,IC50,[48],411 nM
same,IC50,[49],52.2 nM
same,IC50,[50],1390 nM
same,IC50,[51],3790 nM
same,IC50,[52],1010 nM
same,IC50,[53],2620 nM
same,IC50,[54],645 nM
same,IC50,[55],8910 nM
same,IC50,[56],276 nM
same,IC50,[57],634 nM
same,IC50,[58],2230 nM
same,IC50,[59],746 nM
same,IC50,[60],18.7 nM
same,IC50,[61],1410 nM
same,IC50,[62],160 nM
same,IC50,[63],157 nM
same,IC50,[64],190 nM
same,IC50,[65],< 62.5 nM
same,IC50,[66],67.4 nM
CC(C)=CC[C@@H](O)C1=CC(=O)c2c(O)ccc(O)c2C1=O [SHIKONIN],IC50,[1],752 nM
same,IC50,[2],853 nM
same,IC50,[3],> 16000 nM
same,IC50,[4],536 nM
same,IC50,[5],> 16000 nM
same,IC50,[6],15000 nM
same,IC50,[7],114 nM
same,IC50,[8],840 nM
same,IC50,[9],2430 nM
same,IC50,[10],746 nM
same,IC50,[11],1580 nM
same,IC50,[12],417 nM
same,IC50,[13],> 16000 nM
same,IC50,[14],> 16000 nM
same,IC50,[15],101 nM
same,IC50,[16],756 nM
same,IC50,[17],3160 nM
same,IC50,[18],14600 nM
same,IC50,[19],> 16000 nM
same,IC50,[20],3270 nM
same,IC50,[21],7690 nM
same,IC50,[22],244 nM
same,IC50,[23],2230 nM
same,IC50,[24],720 nM
same,IC50,[25],1040 nM
same,IC50,[26],4900 nM
same,IC50,[27],1080 nM
same,IC50,[28],1200 nM
same,IC50,[29],180 nM
same,IC50,[30],96.3 nM
same,IC50,[31],388 nM
same,IC50,[32],401 nM
same,IC50,[33],650 nM
same,IC50,[34],5580 nM
same,IC50,[35],1770 nM
same,IC50,[36],> 16000 nM
same,IC50,[37],568 nM
same,IC50,[38],849 nM
same,IC50,[39],462 nM
same,IC50,[40],1380 nM
same,IC50,[41],406 nM
same,IC50,[42],451 nM
same,IC50,[43],1700 nM
same,IC50,[44],274 nM
same,IC50,[45],2000 nM
same,IC50,[46],726 nM
same,IC50,[47],391 nM
same,IC50,[48],36 nM
same,IC50,[49],401 nM
same,IC50,[50],552 nM
same,IC50,[51],197 nM
same,IC50,[52],> 16000 nM
same,IC50,[53],208 nM
same,IC50,[54],2400 nM
same,IC50,[55],820 nM
same,IC50,[56],658 nM
same,IC50,[57],235 nM
same,IC50,[58],454 nM
same,IC50,[59],7880 nM
same,IC50,[60],> 16000 nM
same,IC50,[61],773 nM
same,IC50,[62],> 16000 nM
same,IC50,[63],> 16000 nM
same,IC50,[64],2340 nM
same,IC50,[65],370 nM
same,IC50,[66],2640 nM
